System: Normal human dermal fibroblasts
Assay: Collagen-increasing activity, ELISA for collagen type 1 or procollagen type 1
Assay type: cell-based
Conditions: 5 ng/ml, positive control, 4 days incubation
Procedure: Normal human dermal fibroblasts are seeded and grown to confluence in a 96-well plate prior to being treated with M. pudica extract or fractions thereof, prepared by solvent/solvent extractions (heptane/70% ethanol, ethyl acetate/water) at various concentrations in complete medium. Media alone serves as negative control and TGF-β serves as positive control. The plates are incubated for 4 days at 37° C./5% CO2 before the supernatants are harvested and stored at -70° C. until an ELISA is performed. Antibodies to collagen type 1 or procollagen type 1 are used for ELISA analysis to determine collagen levels.

TGF-β
increase in collagen levels: 46%
